The source of these data is publication PMC10115881, “Disrupting the α-synuclein-ESCRT interaction with a peptide inhibitor mitigates neurodegeneration in preclinical models of Parkinson’s disease” (Nature Communications, 2023).

Holding throughout (assay type): cell-based, human
Assay [1] relates to A53T a-syn-mediated cytotoxicity in HEK293 cells. Put plainly: Pooled lentiviral 7-mer peptide cytotoxicity screen, A53T a-syn + MG132.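 On Slope Norm Reads: reads normalized to total peptide reads per sample with scalar factor.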 The source says: We used a lentiviral library of 50,549 7-mer peptides enriched in PPI motifs[13] on a green fluorescent protein (GFP) scaffold (Fig. 1A). We infected cells in a pooled format and the amino acid sequence of each peptide served as its own barcode. By using a low multiplicity of infection followed by puromycin selection, each infected cell expressed one unique GFP-peptide. We screened for peptides that reduced a-syn-mediated cytotoxicity or a-syn oligomers in parallel (Fig. 1A). To cause cytotoxicity relevant to PD, we induced proteostatic stress in HEK293 cells by inhibiting the proteasome with MG132 and overexpressing human WT a-syn associated with idiopathic PD in one screen or the more toxic mutant A53T a-syn associated with familial PD in a second screen. This combination of a-syn overexpression and pharmacological proteasome inhibition led to death of most cells, with only those that expressed a protective peptide surviving. By extracting genomic DNA from the surviving cells and amplifying the peptide coding sequences, we identified the protective peptides (Fig. 1A). To detect a-syn oligomers, we used a protein fragment complementation assay (PCA) of a-syn oligomerization in HEK293 cells. In this assay, human A53T a-syn was fused to either the C- or N-terminal half of yellow fluorescent protein (YFP). No fluorescence is detectable while a-syn exists in monomers but, when a-syn oligomerizes, the two halves of YFP come in close enough proximity to form a functional, spontaneously fluorescent protein. […] Our screens yielded 10 hits (Table S1). The hit with the most reads (i.e., the most abundant) was the same peptide in all screens: IPIQLKA (named PDpep1) (Table S1). We validated the cytoprotective effects of PDpep1 in HEK293 cells overexpressing WT or A53T a-syn (Figs. 1B, S1A), as well as its ability to reduce WT or A53T a-syn oligomers in a luciferase-based PCA[18]–[20] compared to a scrambled control peptide (Figs. 1C, S1B).
HEK293T cells (ATCC, CRL-3216) were maintained in DMEM supplemented with 10% FBS and 1% pen/strep/glutamine, and the appropriate selection antibiotics when required. Lentiviruses were made in a 15 cm dish format by transfecting packaging cells (HEK293T) with a three-plasmid system (expression vector, psPAX2 and pMD2.G) and using Polyjet DNA transfection reagent (FroggaBio, SL100688.1). Viral transduction of HEK293T cells were performed with a multiplicity of infection (MOI) of 0.3. Infected cells were selected in puromycin-containing medium to eliminate uninfected cells and three aliquots of cells were collected for sampling of the initial (T0) cell population. Cells were treated with MG132 at concentrations of 0, 10, 25, or 50 µM. For the cell viability screen, surviving cells were collected and gDNA was extracted for identification of peptide inhibitors of cell toxicity. For the inhibition of a-syn aggregation screen, a protein fragment complementation assay (PCA) was used by transfecting cells with split YFP-a-syn constructs following stable expression of the peptides. Cells were sorted based on their YFP fluorescence intensities with a FACSVantage SE cell sorter (BD Bioscience) and gDNA was extracted for identification of peptides.
Genomic DNA (gDNA) from peptide expressing cells at different time-points was extracted using QIAamp DNA Blood Mini Kit. PCR amplifications of peptides from gDNA in parallel with the lentiviral plasmid library (naïve library) were performed using indexed Illumina PCR primers to incorporate both the Illumina adapter sequences and indexing sequences. Each 50 μl reaction contained 3.2 μg of template, 2× PCR buffer, 2× enhancer solution, 300 μM each dNTP, 900 nM each of Adapter A (5′-[…]-[…]-3′) and Adapter B (5′-[…]-[…]-3′), 1 mM MgSO4, 3.75 units of Platinum Pfx polymerase, and water to 50 μl. […]

The subject of the next assay is CD63. Put plainly: CD63 levels in HEK293 cells. The conditions noted are these: A53T a-syn. The protocol: Infected or transfected cells were scraped from six-well dishes and lysed with lysis buffer (50 mM Tris-HCl pH 7.4, 1% Nonidet P-40, 150 mM NaCl, 1 mM EDTA, 1× protease inhibitor mixture (Sigma)) for 30 min at 4 °C. The insoluble pellet was removed following a 10,000 rpm spin for 5 min at 4 °C. Lysates were analyzed by SDS-PAGE/immunoblot using 4–20% Mini-PROTEAN Tris-glycine gels (Bio-Rad), transferred to polyvinylidene fluoride (PVDF) membranes, and blocked in 5% milk containing PBS-Tween-20 (0.1%) for 1 h. PVDF membranes were then incubated with specified primary antibodies followed by incubation with horseradish peroxidase-conjugated secondary antibodies (anti-mouse HRP-linked, Cell Signaling, catalog #7076, 1:5000; anti-rabbit HRP-linked, Cell Signaling, catalog #7074, 1:5000) and detected using enhanced chemiluminescence (GE Healthcare). Anti-a-syn antibody (clone 42) was obtained from BD Biosciences (catalog #610787, 1:1000). Anti-LAMP1 antibody was obtained from Abcam (catalog #ab24170, 1:500). Anti-beta-actin antibody was obtained from Cell Signaling (13E5) (catalog #4970, 1:1000). Anti-CD63 antibody was obtained from R&D Systems (catalog #MAB50482-SP, 1:1000).

The test system of assay [2] is LC3-HiBiT reporter in HEK293 cells. Put plainly: Autophagy flux assay (LC3-HiBiT reporter), HEK293 cells. The source says: Autophagic flux was quantitatively measured with the Autophagy LC3-HiBiT Reporter Assay System which was purchased from Promega (GA1040) and used according to the manufacturer’s instructions. When autophagy is induced, the cytosolic LC3-I fusion protein is recruited to phagophores where it becomes conjugated to phosphatidylethanolamine to form LC3-II. Upon phagophore membrane elongation and closure to form the mature autophagosome, a significant fraction of tethered LC3 protein becomes captured within the lumen together with various cargo. Subsequently, autophagosomes fuse with lysosomes to form autolysosomes, leading to the ultimate degradation of both cargo and the captured LC3 reporter protein. Thus, changes in the total level of the LC3 reporter protein can be used to monitor changes in autophagic flux. HEK293 cells (ATCC, CRL-1573) stably expressing the LC3-HiBiT reporter were trypsinized from subconfluent culture and seeded in a 10 cm plate at a density of 3.0 × 10^6 per plate. Cells were incubated overnight at 37 °C in 5% CO2. Cells were transfected with FLAG-peptide plasmids in combination with pcDNA or A53T a-syn plasmids. After 24 h, cells were trypsinized and seeded in triplicate in a white flat-bottomed 96-well plate at a density of 20,000 cells per well. Cell medium was replaced the next day with fresh medium containing DMSO, Rapamycin, or Bafilomycin A1 and incubated for 24 h at 37 °C with 5% CO2. 80 µL of Working prewarmed Nano-Glo® HiBiT lytic buffer containing HiBiT substrate and LgBit protein (N3030) were added to each well containing 20 µL of cell medium and left to incubate on a rocker for 10 min. Samples were read using a luminometer with a 480 nm filter with measured RLU being directly proportional to HiBiT-conjugated LC3.

As for “IPIQLKA [PDpep1, initial screen hit peptide IPIQLKA]”, in assay [1], the “Reads 10M MG132” value worked out at 20, the “Reads 25M MG132” value was determined as 3859, the “Reads 50M MG132” value is given as 13308 and the “Slope Norm Reads” value came to 40.54. Besides, the “Reads 0M MG132” value in assay [1] (Illumina reads, average Phred >30) came out at 168.

For the substance DEEIERQLKALG [PDpep1.3], the “Effect on CD63 levels” value in the assay on CD63 is on record as “return of CD63”. For the same substance, the “Effect on autophagic flux” value in assay [2] is “neither A53T a-syn nor PDpep1.3 altered autophagic flux”.
